Assay: Popcorn Polymer Glass Tube Reaction Test Method
Details: total additive 250 ppm, 60°C, 14 to 28 days
Method: The Popcorn Polymer Glass Tube Reaction Method allows for the evaluation of many samples at once, and may be described as follows: • 1. Obtain butadiene popcorn polymer "seeds" (in the Examples of this invention the seeds were obtained in 1996 from a BD holding tank). Activate popcorn polymer "seeds" overnight with a 150 watt flood lamp. The "seeds" are firstplaced in a petri dish and covered. Then they are exposed to white light from the lamp for approximately 20 hours. The lamp is positioned 12 inches (30.5 cm) above the dish. • 2. To glass reaction vessels add 1 ml of deionized water. To the glass reaction vessel and water place approximately 0.6200 gms of BD popcorn "seed". Add inhibitor, if any, into the water and seal the reaction vessel with a TEFLON adapter. Completely seal off the adapter by use of a metal adapter plug. Using a gas-tight syringe, inject 15mls of butadiene monomer into the reaction vessel by way of a septum port located at the top of the TEFLON adapter. • 3. Next, place the reaction vessel containing BD popcorn "seed" and butadiene monomer into a block incubator bath which is capable of maintaining a constant temperature of 60°C. Allow the test to run for 14 to 28 days. Remove the reaction vessel from the incubator bath. • 4. Vent the BD out of the vessel by slowly opening the metal adapter plug. Slowly open the reaction vessel and decant the water/BD mixture. Rinse the wet polymer with n-heptane until most of the n-heptane is essentially clear of haze. Blow dry nitrogen into the reaction vessel to further dry the poly-mer. Remove the popcorn polymer carefully with tweezers and spatula and place in a 100 ml beaker. Wash the popcorn polymer material three times with 30 ml aliquots of n-heptane. • 5. Transfer the popcorn polymer sample into a petri dish. Place dish into a vacuum oven. Dry sample at 212°F (100°C) under a 30 mmHg vacuum for 30 minutes. Remove dish and sample from oven. Place dish and popcorn polymer sample in a desiccator. Cool for 1 hour and record the weight of the popcorn polymer. The weight of new polymer growth can be obtained by subtracting the original seed weight from the total popcom polymer weight.

Row | SMILES | %Inhibition (Table II) | Polymer formed mg/15ml (Table II) | %Inhibition (Table III) | Polymer formed mg/15ml (Table III)
1 | CC1(C)CCCC(C)(C)N1[O] [compound 7, 2,2,6,6-tetramethyl-1-piperidinyloxyl] | 50% | 550 mg/15ml | 83% | 80 mg/15ml
2 | CC(C)(C)c1cc(O)ccc1O [compound 8, tert-butyl hydroquinone] | 30% | 770 mg/15ml | – | –
3 | COc1cc(C(C)(C)C)c(O)c(C(C)(C)C)c1 [compound 19, 2,6-di-tert-butyl-4-methoxyphenol] | – | – | 77% | 108 mg/15ml

— patent publication EP1383722B1, “INHIBITION OF POPCORN POLYMER GROWTH” (BAKER HUGHES INCORPORATED, priority 2001, dated 2002)
